{
  "source": "paper PMC3331904",
  "about": "(2012)",
  "molecular_target": "TORC1 (TOR complex 1 kinase) (Saccharomyces cerevisiae, UniProt P35169)",
  "sequence (P35169 whole entry)": "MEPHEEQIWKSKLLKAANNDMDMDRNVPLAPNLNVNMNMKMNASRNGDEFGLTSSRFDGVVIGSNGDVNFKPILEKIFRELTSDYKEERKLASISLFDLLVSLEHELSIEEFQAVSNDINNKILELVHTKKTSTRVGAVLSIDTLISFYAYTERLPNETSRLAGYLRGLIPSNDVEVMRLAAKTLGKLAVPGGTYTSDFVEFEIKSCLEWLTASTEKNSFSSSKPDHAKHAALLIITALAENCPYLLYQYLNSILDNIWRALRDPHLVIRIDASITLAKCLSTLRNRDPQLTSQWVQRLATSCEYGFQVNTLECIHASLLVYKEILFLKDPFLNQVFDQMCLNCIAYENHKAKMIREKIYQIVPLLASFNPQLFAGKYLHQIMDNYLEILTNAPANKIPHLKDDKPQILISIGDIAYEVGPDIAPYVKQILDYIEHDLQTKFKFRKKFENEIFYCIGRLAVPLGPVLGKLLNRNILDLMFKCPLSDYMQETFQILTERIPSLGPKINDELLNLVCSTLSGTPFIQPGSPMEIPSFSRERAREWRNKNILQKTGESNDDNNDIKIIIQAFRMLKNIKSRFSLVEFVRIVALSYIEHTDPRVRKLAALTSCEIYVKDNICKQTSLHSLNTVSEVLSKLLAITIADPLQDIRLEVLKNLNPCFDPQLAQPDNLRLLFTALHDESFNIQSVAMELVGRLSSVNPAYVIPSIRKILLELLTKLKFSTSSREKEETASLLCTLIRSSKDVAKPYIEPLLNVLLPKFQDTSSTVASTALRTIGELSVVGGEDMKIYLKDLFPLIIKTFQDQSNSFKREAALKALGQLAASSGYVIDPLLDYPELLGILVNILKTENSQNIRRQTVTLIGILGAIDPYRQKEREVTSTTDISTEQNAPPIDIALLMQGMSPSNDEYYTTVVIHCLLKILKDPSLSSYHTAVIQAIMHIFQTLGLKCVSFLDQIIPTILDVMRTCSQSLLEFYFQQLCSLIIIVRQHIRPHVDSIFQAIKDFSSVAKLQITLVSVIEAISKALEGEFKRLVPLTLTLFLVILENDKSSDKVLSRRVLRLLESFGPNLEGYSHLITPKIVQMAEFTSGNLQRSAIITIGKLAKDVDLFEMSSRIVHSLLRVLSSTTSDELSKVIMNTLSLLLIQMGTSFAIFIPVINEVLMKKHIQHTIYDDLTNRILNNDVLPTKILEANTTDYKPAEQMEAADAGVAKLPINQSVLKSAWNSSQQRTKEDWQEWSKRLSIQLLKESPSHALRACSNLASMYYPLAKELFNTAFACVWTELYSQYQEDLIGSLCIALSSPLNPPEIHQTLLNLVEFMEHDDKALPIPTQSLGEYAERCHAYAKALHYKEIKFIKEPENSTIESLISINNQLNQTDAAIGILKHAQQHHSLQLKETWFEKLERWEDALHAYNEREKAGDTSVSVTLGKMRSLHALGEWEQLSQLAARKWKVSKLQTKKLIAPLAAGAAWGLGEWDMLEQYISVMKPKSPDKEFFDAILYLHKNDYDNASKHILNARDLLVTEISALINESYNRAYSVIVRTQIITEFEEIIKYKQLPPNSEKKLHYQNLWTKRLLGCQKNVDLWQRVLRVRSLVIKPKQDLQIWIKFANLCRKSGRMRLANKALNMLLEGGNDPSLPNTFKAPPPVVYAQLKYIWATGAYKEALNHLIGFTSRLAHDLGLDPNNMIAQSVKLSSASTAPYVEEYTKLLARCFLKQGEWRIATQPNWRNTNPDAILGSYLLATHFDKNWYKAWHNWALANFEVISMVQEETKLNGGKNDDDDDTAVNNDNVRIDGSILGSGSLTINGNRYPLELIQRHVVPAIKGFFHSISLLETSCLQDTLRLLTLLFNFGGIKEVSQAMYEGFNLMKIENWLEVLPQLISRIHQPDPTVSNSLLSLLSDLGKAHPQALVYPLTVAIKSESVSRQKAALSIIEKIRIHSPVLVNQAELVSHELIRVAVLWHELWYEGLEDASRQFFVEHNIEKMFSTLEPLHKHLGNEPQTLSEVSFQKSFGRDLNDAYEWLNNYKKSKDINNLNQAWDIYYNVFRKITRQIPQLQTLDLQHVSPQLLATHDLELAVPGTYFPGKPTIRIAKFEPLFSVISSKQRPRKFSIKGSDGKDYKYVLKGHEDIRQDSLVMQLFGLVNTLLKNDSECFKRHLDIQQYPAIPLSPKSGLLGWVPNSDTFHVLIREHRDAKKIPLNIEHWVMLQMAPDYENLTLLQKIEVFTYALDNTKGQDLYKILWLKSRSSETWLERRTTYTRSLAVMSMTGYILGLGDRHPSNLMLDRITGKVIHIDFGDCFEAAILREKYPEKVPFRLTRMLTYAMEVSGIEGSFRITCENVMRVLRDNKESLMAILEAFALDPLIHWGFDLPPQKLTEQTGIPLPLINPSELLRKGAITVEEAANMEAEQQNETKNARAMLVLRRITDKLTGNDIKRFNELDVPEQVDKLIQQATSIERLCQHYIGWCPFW",
  "sequence (P38873 whole entry partner)": "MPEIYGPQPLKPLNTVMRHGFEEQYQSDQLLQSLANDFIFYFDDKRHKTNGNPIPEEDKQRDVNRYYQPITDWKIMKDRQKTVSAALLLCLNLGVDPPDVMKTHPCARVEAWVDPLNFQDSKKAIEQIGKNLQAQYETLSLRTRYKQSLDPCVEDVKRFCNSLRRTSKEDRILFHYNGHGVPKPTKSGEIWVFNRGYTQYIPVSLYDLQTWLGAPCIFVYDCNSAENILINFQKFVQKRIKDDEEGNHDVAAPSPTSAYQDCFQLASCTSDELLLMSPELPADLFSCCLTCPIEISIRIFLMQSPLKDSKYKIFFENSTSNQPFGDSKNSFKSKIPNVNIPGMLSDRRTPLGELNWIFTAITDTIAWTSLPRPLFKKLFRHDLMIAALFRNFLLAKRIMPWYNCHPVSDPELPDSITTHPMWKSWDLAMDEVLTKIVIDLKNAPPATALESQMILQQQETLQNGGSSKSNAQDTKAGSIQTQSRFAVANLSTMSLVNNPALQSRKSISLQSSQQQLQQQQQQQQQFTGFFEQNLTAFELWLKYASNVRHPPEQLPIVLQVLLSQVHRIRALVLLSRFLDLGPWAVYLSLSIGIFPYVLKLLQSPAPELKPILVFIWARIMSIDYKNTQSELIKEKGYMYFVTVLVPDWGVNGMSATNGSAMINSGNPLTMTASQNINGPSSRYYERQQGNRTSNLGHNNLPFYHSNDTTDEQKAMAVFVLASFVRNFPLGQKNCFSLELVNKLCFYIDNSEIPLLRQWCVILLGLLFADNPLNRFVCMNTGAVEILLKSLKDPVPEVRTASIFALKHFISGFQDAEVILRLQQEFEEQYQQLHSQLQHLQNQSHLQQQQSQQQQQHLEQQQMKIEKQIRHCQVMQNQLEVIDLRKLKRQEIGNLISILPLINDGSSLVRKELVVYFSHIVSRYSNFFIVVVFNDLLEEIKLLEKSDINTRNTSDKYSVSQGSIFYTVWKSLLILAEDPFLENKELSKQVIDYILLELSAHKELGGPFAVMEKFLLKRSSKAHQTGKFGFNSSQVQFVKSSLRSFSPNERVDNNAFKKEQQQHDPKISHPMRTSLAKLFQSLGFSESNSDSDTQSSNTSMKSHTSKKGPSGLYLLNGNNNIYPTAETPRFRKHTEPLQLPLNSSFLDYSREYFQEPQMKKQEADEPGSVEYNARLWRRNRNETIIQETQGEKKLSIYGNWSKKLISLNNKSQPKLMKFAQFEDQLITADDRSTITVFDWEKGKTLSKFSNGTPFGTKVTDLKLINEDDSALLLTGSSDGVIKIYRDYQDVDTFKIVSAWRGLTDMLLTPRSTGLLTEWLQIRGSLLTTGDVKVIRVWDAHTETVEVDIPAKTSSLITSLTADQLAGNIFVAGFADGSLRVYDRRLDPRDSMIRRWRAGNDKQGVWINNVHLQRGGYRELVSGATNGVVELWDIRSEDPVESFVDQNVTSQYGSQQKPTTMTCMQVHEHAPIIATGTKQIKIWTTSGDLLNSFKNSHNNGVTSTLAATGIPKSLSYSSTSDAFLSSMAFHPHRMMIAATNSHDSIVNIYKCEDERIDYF",
  "test": "TORC1 in vitro kinase assay",
  "type": "biochemical",
  "note": "pIC50: −log10 of the molar value.",
  "data": [
    {"smiles": "CNc1nc(N)c([N+](=O)[O-])c(Nc2cccc(F)c2)n1", "note": "[CID 3528206]", "values": [
      {"measurement": "pIC50", "result": "~6.82"}
    ]}
  ]
}
